From paper PMC8949944, “The Effect of Microbubble-Assisted Ultrasound on Molecular Permeability across Cell Barriers” (Pharmaceutics, 2022)
Several values for one entry are separate records, joined by “and”; a condition that tells them apart may be missing. Equal entries are not always repeated. Entries after “also recorded” stand apart in the source; their conditions may differ.

Legend:
[1] = Permeability of model drugs across epithelial (MDCK II) barrier on transwell after USMB or sham treatment; type: in vitro ADME, canine; details: dog, MDCK; 0 MPa (sham); apical-to-basolateral; read-out: apparent permeability coefficient (Papp)
Procedure: (§1) For the permeability studies, epithelial cells were cultured as tight monolayers on transwell membranes. […] Prior to cell seeding, the transwell membranes were equilibrated for 10 min with culture medium at room temperature. […] The permeability of various test compounds across epithelial monolayers cultured on transwell membranes was studied in the apical-to-basolateral direction (Figure 1A). […] Ultrasound experiments were performed using an unfocused, single-element transducer with 20 mm diameter (PA420, Precision Acoustics, Dorchester, UK). […] The resulting signal was then amplified (AG1012, T&C Power Conversion Inc., New York, NY, USA) before it was sent to the ultrasound transducer. A dedicated sonication tank compatible with transwell inserts was used for the USMB experiments (Figure 1B). The ultrasound transducer was positioned at the bottom of the bath and about 250 mL of PBS at 37 °C was added. Subsequently, the transwell insert was immersed in the bath with the transwell membrane covered with cells facing down (Figure 1B) at a fixed axial distance (80 mm) from the ultrasound transducer. Transwell inserts were randomly assigned to USMB-treated or sham-treated sample groups. Following immersion of USMB-treated samples in the sonication bath, 500 μL of freshly mixed SonoVue^TM microbubbles (Bracco, Milan, Italy) was injected near the cells using a curved-tip 19G needle (Figure 1C). […] Microbubbles were allowed to float for 1 min so that direct contact with the cells was assured. Subsequently, ultrasound was applied for 1 min with acoustic peak negative pressure (Pneg) ranging between 0.3 and 0.7 MPa. […] Sham-treated samples were immersed in the PBS bath for 2 min and served as negative controls (0 MPa). […] Immediately after USMB treatment, transwell inserts were removed from the sonication bath (containing PBS) and were placed in a new six-well plate. […] The initial concentration of test compounds on the apical side was 1 μCi/mL for propranolol and mannitol and 200 μM for 6-carboxyfluorescein and fluorescent dextrans. An overview of the relevant physicochemical characteristics of the test compounds used in the permeability experiments is given in Table 1. […] The volume of removed sample was replaced with fresh HBSS. During the experiment, cells were kept at 37 °C and shaking at 170 rounds per minute. In the experiments where fluorescent compounds were used, samples were protected from light at all times. The samples containing radioactively-labelled compounds were equilibrated overnight in liquid scintillation cocktail for radiometric detection (Ultima Gold, 6013321, Perkin Elmer) at room temperature. Detection of radioactivity counts was determined by a microplate counter for radiometric counting (MicroBeta, 2450, Perkin Elmer). Intensity of fluorescence signals was determined by a spectrofluorophotometer (FP 8300, Jasco Benelux BV, Utrecht, The Netherlands). 6-carboxyfluorescein was excited at 492 nm and emission was detected at 517/5 nm (center wavelength/bandwidth) and TRITC-dextrans were excited at 550 nm and detected at 575/5 nm. Background radioactivity and fluorescence signal from HBSS were subtracted from the measurements. […] Q is the flux of the test compound (μg/s), C0 is the initial concentration of the test compound at the apical side (μg/mL), and A is the surface area of the transwell membrane (cm^2).

[2] = test system: epithelial (MDCK II) cell barrier; assay: as above; type: in vitro ADME, canine; details: for total permeated amount: 0 MPa (sham, absence of USMB), 120 min, apical-to-basolateral; for effect of USMB on permeability across epithelial barrier: increasing ultrasound pressures 0.3-0.7 MPa vs sham
Procedure: as §1

[3] = test system: endothelial (HUVEC) barrier; assay: Permeability of model drugs across endothelial (HUVEC) barrier on transwell; type: in vitro ADME, Human
From the text: Supplementary Information: The Effect of Microbubble-As-sisted Ultrasound on Molecular Permeability across Cell Barri- […]
Charis Rousou, Josanne de Maar, Boning Qiu, Kim van der Wurff-Jacobs, Marika Ruponen, Arto Urtti, Sabrina Oliveira, Chrit Moonen, Gert Storm, Enrico Mastrobattista and Roel Deckers SI-1. Materials and methods
SI-1.1. Culture of endothelial cells
Human umbilical vein endothelial cells (HUVEC) were acquired from Lonza (Verviers, Belgium) and cultured in Endothelial Basal Medium (EBM-2) supplemented with growth factors (Growth Medium 2 SupplementMix®, PromoCell, Heidelberg Germany) and 0.1% antibiotics (gentamicin/amphotericin B, Gibco, New York, USA). Cells were sub-cultured 1-2 times per week in dilution ratios between 1:3-1:6 and were used up to passage number 7.
SI-1.2. Differentiation of endothelial cells […]
The effect of USMB treatment on the viability of epithelial cells was examined using the AlamarBlue assay. […] Next, the solution from the apical side was removed and fluorescence intensity was analyzed with a spectrofluorophotometer (FP 8300, Jasco) at excitation and emission wavelengths of 571 nm and 584/5 nm (center wavelength/bandwidth), respectively. Cell viability of each group was calculated as percentage fluorescent signal relative to that of sham treated cells. […]

[4] = cited from earlier work; for Hydrophilic/Lipophilic: classification in Table 1

Compound | Papp A→B at 120 min, 200 µM [1] [×10⁻⁶ cm/s] | total permeated amount [2] | effect of USMB on permeability across epithelial barrier [2] | permeated amount ([3]; control samples (0 MPa), 120 minutes, endothelial barrier) [%] | Papp endothelial (HUVEC) barrier relative to epithelial (MDCK II) barrier ([3]; sham treatment, absence of USMB) | Hydrophilic/Lipophilic [4] | LogD ([4]; octanol/water partition coefficient at pH 7.4)
O=C(O)c1ccc(C(=O)O)c(-c2c3ccc(=O)cc-3oc3cc(O)ccc23)c1 [6-carboxyfluorescein] | 0.06 | 4.06% and 4.1 ± 0.5% | did not have a significant effect; also recorded: lack of measurable effect | 5.14 | 22 times and ~ 20 times | Hydrophilic | −3.2
OC[C@@H](O)[C@@H](O)[C@H](O)[C@H](O)CO [Mannitol, mannitol] | – | 5.6 ± 1.4% | did not have a significant effect; also recorded: lack of measurable effect | – | – | Hydrophilic | –
CC(C)NCC(O)COc1cccc2ccccc12 (stereo not shown) [Propranolol, propranolol] | – | 29.1 ± 2.2% | did not have a significant effect | – | – | Lipophilic | –
